Laboratory results from US12256764B2 (priority 2017, dated 2025).

System: rats
Test: Acute oral toxicity (LD50) in rats
Conditions: conversion of the MSDS LD50

In the case of `OCC(O)CO` [Vegetable glycerin, glycerol], the “LD50 oral rat dosage expressed for a 180 pound male” value is reported as 36 ounces.
